From patent publication EP0603240B1, “SAFENING HERBICIDAL PYRAZOLYLSULFONYLUREAS” (priority 1991, dated 1993)

How the values were obtained:
Type in all cases: in vivo
corn [1] = test: Example 13, Procedure II: Herbicide No. 1 + acetochlor (No. 6) with dichloroacetamide antidotes; settings: for safening of corn, assessment in words: Herbicide Nos. 1 and 6, Table 13
Protocol: (§1) Containers were filled and compacted with a fumigated silt loam top soil to a depth of about 1.3 cm from the top of the container. A first container was designated as an untreated control, a second container was designated as a herbicide control, and a third container was designated as a herbicide + antidote test container. Each of the containers was seeded with a crop species. A measured amount of herbicide dispersed or dissolved in acetone was applied to a measured quantity of soil. To this same quantity of soil treated with herbicide, there was added a measured amount of antidote dispersed or dissolved in acetone. The quantity of soil treated with the herbicide and antidote was thoroughly mixed to incorporate the herbicide and antidote in the soil uniformly. The seed bed in the third container of soil was covered with the soil treated with the herbicide and antidote and the container was leveled. For each test series, the seed beds of the first and second containers were likewise covered by soil layers. the cover layer of the first container was not treated with herbicide or antidote.
(§2) The containers were then placed on a bench in a greenhouse and sub-irrigated as required for the duration of the test. […] Plant response is measured in terms of percent injury. Antidote efficacy is indicated as the difference in plant injury by the herbicide(s) without the antidote and with the antidote.
(§3) This procedure is the same as Procedure I, but modified in the manner that after incorporation of the chemicals (herbicide and antidote) the containers with the covered seedbed were treated with an initial overhead irrigation equivalent to 0.6 cm rainfall, then subsequently sub-irrigated as required on greenhouse benches.
In this example a plurality of dichloroacetamide antidotes were tested for their safening efficacy against a herbicidal composition comprising Herbicide No. 1 and a co-herbicide, acetochlor (Herbicide No. 6) in corn in the presence of velvetleaf. The procedure used in this example was Procedure II above.

corn [2] = test: Example 1, greenhouse Procedure II: antidotes against Herbicide No. 1; settings: Herbicide No. 1, Table 1
Protocol: as §1, §2, §3
(§4) In the series of greenhouse tests described below, for routine screening purposes the herbicide/antidote compositions were tested in crop/weed combinations involving corn as the crop and either or both of the weeds barnyardgrass (Echinochloa crusgalli), a monocotyledonous weed, and velvetleaf (Abutilon theophrasti), a dicotyledonous weed. In the tables below, these weeds are indicated by the symbols "BYG" and "VL", respectively.
This example was designed to investigate the antidotal efficacy of a plurality of antidotes against Herbicide No. 1 in corn in the presence of barnyard grass and velvetleaf. The antidotes used in this example were Antidote Nos. 1-10, 12, 13 and 15.
The test in this example was conducted as described above for Procedure II. The antidotes were applied to the soil cover layer by pipet after spraying on the herbicide followed by incorporation and simulated rain.

corn [3] = test: Example 17, Procedure II: Herbicide No. 1 + vernolate (No. 11) with antidotes; settings: Table 17
Protocol: as §1
The containers were then placed on a bench in a greenhouse and sub-irrigated as required for the duration of the test. […] Plant response is measured in terms of percent injury. Antidote efficacy is indicated as the difference in plant injury by the herbicide(s) without the antidote and with the antidote. […]

corn [4] = test: Example 4, Procedure I: Antidote Nos. 15 and 16 against Herbicide No. 1
Protocol: as §1, §2
(§5) This example describes tests with Antidote Nos. 15 and 16 to safen Herbicide No. 1 according to Procedure I using corn and the weeds barnyardgrass and velvetleaf as the test plants.

corn [5] = test: Example 5, Procedure I: Herbicide No. 1 + alachlor (No. 7) with Antidote Nos. 15 and 16
Protocol: as §1, §2, §5
(§6) In the tests described in this example, the same procedure described in Example 4 was performed simultaneously therewith and under the same conditions, except that a co-herbicide, alachlor, was included in the same composition with Herbicide No. 1 and Antidote Nos. 15 and 16. Alachlor (Herbicide No. 7 herein) is the active ingredient in the commercial product LASSO® herbicide.

corn [6] = test: Example 3, Procedure I: antidotes against Herbicide No. 1
Protocol: as §1, §2
(§7) This example details the results of tests with Antidote Nos. 12, 15 and 16 to safen Herbicide No. 1 over application rates ranging from 4.48 kg/ha down to 0.56 kg/ha, in corn in the presence of barnyardgrass. Procedure I described above was used in these tests.

[7] = system: velvetleaf (Abutilon theophrasti); test: Example 4, Procedure I: Antidote Nos. 15 and 16 against Herbicide No. 1
Protocol: as §1, §2, §4, §5

[8] = system: barnyardgrass (Echinochloa crusgalli); test: as above
Protocol: as §1, §2, §4, §5

[9] = system: velvetleaf (Abutilon theophrasti); test: Example 5, Procedure I: Herbicide No. 1 + alachlor (No. 7) with Antidote Nos. 15 and 16
Protocol: as §1, §2, §4, §5, §6

[10] = system: barnyardgrass (Echinochloa crusgalli); test: as above
Protocol: as §1, §2, §4, §5, §6

[11] = system: barnyardgrass (Echinochloa crusgalli); test: Example 3, Procedure I: antidotes against Herbicide No. 1
Protocol: as §1, §2, §4, §7

corn [12] = test: Example 12, Procedure II: Herbicide No. 1 + acetochlor (No. 6) with thirteen antidotes; settings: Herbicide No.6 2.24 kg/ha alone, no antidote
Protocol: as §1, §2, §3
This example was designed to investigate the efficacy of thirteen different antidotes from different classes of chemistry as safeners against compositions of Herbicide No. 1 and acetochlor (Herbicide No. 6) as co-herbicide. Acetochlor is the active ingredient in the commercial herbicides GUARDIAN® and WENNER®.
The test procedure used in this example was Procedure II described above.

[13] = Herb. No. 1 4.48 kg/ha + antidote 0.56 kg/ha
[14] = Herb. No. 1 4.48 kg/ha + antidote 2.24 kg/ha
[15] = Herb. No. 1 6.72 kg/ha + antidote 0.56 kg/ha
[16] = Herb. No. 1 6.72 kg/ha + antidote 2.24 kg/ha
[17] = Herbicide No.1 4.48 + No.7 0.56 kg/ha + antidote 0.56 kg/ha
[18] = Herbicide No.1 4.48 + No.7 0.56 kg/ha + antidote 2.24 kg/ha
[19] = Herbicide No.1 4.48 + No.7 2.24 kg/ha + antidote 0.56 kg/ha
[20] = Herbicide No.1 4.48 + No.7 2.25 kg/ha + antidote 2.24 kg/ha
[21] = Herbicide No.1 6.72 + No.7 0.56 kg/ha + antidote 0.56 kg/ha
[22] = Herbicide No.1 6.72 + No.7 0.56 kg/ha + antidote 2.24 kg/ha
[23] = Herbicide No.1 6.72 + No.7 2.24 kg/ha + antidote 0.56 kg/ha
[24] = Herbicide No.1 6.72 + No.7 2.25 kg/ha + antidote 2.24 kg/ha
[25] = Herb. No. 1 0.56 kg/ha + antidote 0.56 kg/ha
[26] = Herb. No. 1 0.56 kg/ha + antidote 2.24 kg/ha
[27] = Herb. No. 1 0.56 kg/ha + antidote 8.96 kg/ha
[28] = Herb. No. 1 1.12 kg/ha + antidote 0.56 kg/ha
[29] = Herb. No. 1 1.12 kg/ha + antidote 2.24 kg/ha
[30] = Herb. No. 1 1.12 kg/ha + antidote 8.96 kg/ha
[31] = Herb. No. 1 2.24 kg/ha + antidote 0.56 kg/ha
[32] = Herb. No. 1 2.24 kg/ha + antidote 2.24 kg/ha
[33] = Herb. No. 1 2.24 kg/ha + antidote 8.96 kg/ha
[34] = Herb. No. 1 4.48 kg/ha + antidote 8.96 kg/ha
[35] = antidote 8.96 kg/ha alone, no herbicide

Q: Which “safening of corn, assessment in words” value (corn [1]) does the source give for CC1CN(C(=O)C(Cl)Cl)C(C)(C)O1 (centres unmarked) [Antidote No. 5, Oxazolidine, 3-(dichloroacetyl)-2,2,5-trimethyl-] here?
A: Commercial-level safening was exhibited at all rates and combinations

Q: Which “safening of corn, assessment in words” value (corn [1]) does the source give for CC1(C)CN2C(=O)CCC2(C)N(C(=O)C(Cl)Cl)C1 (centres unmarked) [Antidote No. 14, 5-Dichloroacetyl-3,3,6-trimethyl-9-oxo-1,5-diazabicyclo[4.3.0]nonane] here?
A: Commercial-level safening was exhibited at all rates and combinations

Q: How did the “safening of corn, assessment in words” value (corn [2]) turn out when O=C(C(Cl)Cl)N1CCCC12CCCC2 [Antidote No. 9, 1-Azaspiro[4,4]noname, 1-(dichloroacetyl)-] was run?
A: best safening effect across quadruple treatments

Q: What about the “safening of corn, assessment in words” value (corn [3]) of the same compound?
A: best overall safening performance

Q: CC1(C)OC(c2cccnc2)CN1C(=O)C(Cl)Cl (centres unmarked) [Antidote No. 16, Pyridine, 3-[3-(dichloroacetyl)-2,2-dimethyl-5-oxazolidinyl]-] was tested. Which “safening of corn, assessment in words” value (corn [4]; Herbicide No. 1, Table 4) did it give?
A: substantial safening of Herbicide No. 1

Q: What about the “safening of corn, assessment in words” value (corn [5]; Herbicide Nos. 1 and 7, Table 5) of the same compound?
A: substantial safening of corn

Q: What about the “safening of corn, assessment in words” value (corn [6]; Herbicide No. 1, Table 3) of the same compound?
A: excellent protection for corn

Q: How did the “% Injury VL” value [7, 13] turn out when CC1(C)OC(c2cccnc2)CN1C(=O)C(Cl)Cl (centres unmarked) [compound 16] was run?
A: 95%

Q: What about the “% Injury VL” value [7, 14] of the same compound?
A: 95%

Q: What about the “% Injury VL” value [7, 15] of the same compound?
A: 95%

Q: And the “% Injury VL” value [7, 16]?
A: 95%

Q: What about the “% Injury BYG” value [8, 13] of the same compound?
A: 95%

Q: What about the “% Injury BYG” value [8, 14] of the same compound?
A: 95%

Q: And the “% Injury BYG” value [8, 15]?
A: 95%

Q: And the “% Injury BYG” value [8, 16]?
A: 95%

Q: And the “% Injury VL” value [9, 17]?
A: 95%

Q: And the “% Injury VL” value [9, 18]?
A: 95%

Q: And the “% Injury VL” value [9, 19]?
A: 98%

Q: What about the “% Injury VL” value [9, 20] of the same compound?
A: 98%

Q: What about the “% Injury VL” value [9, 21] of the same compound?
A: 98%

Q: And the “% Injury VL” value [9, 22]?
A: 95%

Q: And the “% Injury VL” value [9, 23]?
A: 98%

Q: And the “% Injury VL” value [9, 24]?
A: 99%

Q: What about the “% Injury BYG” value [10, 17] of the same compound?
A: 100%

Q: And the “% Injury BYG” value [10, 18]?
A: 100%

Q: What about the “% Injury BYG” value [10, 19] of the same compound?
A: 100%

Q: What about the “% Injury BYG” value [10, 20] of the same compound?
A: 100%

Q: And the “% Injury BYG” value [10, 21]?
A: 95%

Q: And the “% Injury BYG” value [10, 22]?
A: 100%

Q: And the “% Injury BYG” value [10, 23]?
A: 100%

Q: And the “% Injury BYG” value [10, 24]?
A: 100%

Q: And the “% Injury BYG” value [11, 25]?
A: 65%

Q: What about the “% Injury BYG” value [11, 26] of the same compound?
A: 60%

Q: And the “% Injury BYG” value [11, 27]?
A: 50%

Q: And the “% Injury BYG” value [11, 28]?
A: 70%

Q: What about the “% Injury BYG” value [11, 29] of the same compound?
A: 80%

Q: What about the “% Injury BYG” value [11, 30] of the same compound?
A: 85%

Q: What about the “% Injury BYG” value [11, 31] of the same compound?
A: 85%

Q: And the “% Injury BYG” value [11, 32]?
A: 90%

Q: And the “% Injury BYG” value [11, 33]?
A: 80%

Q: What about the “% Injury BYG” value [11, 13] of the same compound?
A: 75%

Q: And the “% Injury BYG” value [11, 14]?
A: 80%

Q: What about the “% Injury BYG” value [11, 34] of the same compound?
A: 95%

Q: And the “% Injury BYG” value [11, 35]?
A: 0%

Q: And the “% Injury Corn” value (corn [4]; [13])?
A: 70%

Q: What about the “% Injury Corn” value (corn [4]; [14]) of the same compound?
A: 15%

Q: What about the “% Injury Corn” value (corn [4]; [15]) of the same compound?
A: 35%

Q: What about the “% Injury Corn” value (corn [4]; [16]) of the same compound?
A: 30%

Q: And the “% Injury Corn” value (corn [5]; [17])?
A: 48%

Q: What about the “% Injury Corn” value (corn [5]; [18]) of the same compound?
A: 18%

Q: And the “% Injury Corn” value (corn [5]; [19])?
A: 53%

Q: What about the “% Injury Corn” value (corn [5]; [20]) of the same compound?
A: 40%

Q: What about the “% Injury Corn” value (corn [5]; [21]) of the same compound?
A: 43%

Q: What about the “% Injury Corn” value (corn [5]; [22]) of the same compound?
A: 55%

Q: What about the “% Injury Corn” value (corn [5]; [23]) of the same compound?
A: 80%

Q: And the “% Injury Corn” value (corn [5]; [24])?
A: 55%

Q: And the “% Injury Corn” value (corn [6]; [25])?
A: 0%

Q: What about the “% Injury Corn” value (corn [6]; [26]) of the same compound?
A: 0%

Q: What about the “% Injury Corn” value (corn [6]; [27]) of the same compound?
A: 0%

Q: What about the “% Injury Corn” value (corn [6]; [28]) of the same compound?
A: 0%

Q: And the “% Injury Corn” value (corn [6]; [29])?
A: 0%

Q: And the “% Injury Corn” value (corn [6]; [30])?
A: 0%

Q: What about the “% Injury Corn” value (corn [6]; [31]) of the same compound?
A: 5%

Q: What about the “% Injury Corn” value (corn [6]; [32]) of the same compound?
A: 0%

Q: What about the “% Injury Corn” value (corn [6]; [33]) of the same compound?
A: 0%

Q: What about the “% Injury Corn” value (corn [6]; [13]) of the same compound?
A: 5%

Q: What about the “% Injury Corn” value (corn [6]; [14]) of the same compound?
A: 5%

Q: And the “% Injury Corn” value (corn [6]; [34])?
A: 5%

Q: And the “% Injury Corn” value (corn [6]; [35])?
A: 0%

Q: For CCOCN(C(=O)CCl)c1c(C)cccc1CC [Herbicide No.6], which “% Injury Corn” value (corn [1]; Herbicide No.6 4.48 kg/ha alone, no antidote) is on record?
A: 50%

Q: What about the “% Injury Corn” value (corn [12]) of the same compound?
A: 25%
